USRE45313E1, “Exendin variant peptides” (priority 1999, dated 2014)
“Also recorded” adds a separate entry of the source.

Tested on: diabetic ob/ob mice
Assay: Single dose effect of oral and parenteral administration on blood glucose levels in diabetic ob/ob mice (Example 24)
Format: in vivo
Text: This was examined using Compound 5 to test the effect on blood glucose (BG) levels in the ob/ob mutant mice after intraperitoneal (i.p.) and peroral (p.o.) administration. […] Forty female diabetic ob/ob mice (Umeä strain, Bomholtgaard), which are obese due to a dominant mutant leptin (Tomita, T., Doull, V., Pollock, H. G., and Krizsan, D. 1992. Pancreatic islets of obese hyperglycemic mice (ob/ob). […] At arrival the animals were 8 weeks of age. The mice were allowed 2 weeks of acclimatization before experiments were initiated. At the time of experiment the mice were 13 weeks old with a body weight of 41.8±3.2 g (mean±SD; n=42). Handling of the mice one and three days before the experiment was performed in order to reduce stress-induced BG excursions. On the day of the experiment, blood was taken from the tip of the tail 2-3 hours after the light was turned on. A single drop of blood (<5 μl) was dropped on the glucose strip for analysis and measured by an Elite Autoanalyser, Bayer, Denmark. Whole blood glucose (BG) concentration was analysed by the immobilised glucose oxidase method. Blood glucose levels varied between normoglycaemia and severe hyperglycaemia (range: 3.6-15.6 mM; mean±SD: 9.4±3.3 mM: n=42). Six animals with BG <5.8 mM were excluded from the study (total n=36). The remaining animals were stratified based on their BG levels in order to ensure that the mean BG was similar among groups. […] Compound 5 (batch nr. ZP 3.12 fraction 1-2. […] The peptide was dissolved in sterile isotonic NaCl shortly before dosing and given in a volume of 0.2 ml. The same solutions were used for both p.o. and i.p. administration. For each animal, a data log sheet was filled out at the time of each blood sampling. […] During control conditions, BG levels in non-fasted ob/ob mice were similar in all groups (individual group data not shown), but within groups, there was a great scatter on BG levels (BG range for all animals: 5.8-15.6 mM). Therefore, to correct for the varying degree of hyperglycemia, results are expressed as the relative difference from baseline (% control). […] In most groups (5/6), BG increased between 4 and 8 hrs after drug administration. Compound 5 reduced the BG levels in a dose of 110 μg/mouse when administered i.p. in diabetic ob/ob mice (data not shown). The antidiabetic effect was observed after 60 minutes and was maximal 2-4 h after administration of the compound. […] Glucagon-like peptide-1 and the entero-insular axis in obese hyperglycaemic (ob/ob) mice.

CCCCCCCCCCCCCCCC(=O)NCCCC[C@H](NC(=O)[C@H](CCCNC(=N)N)NC(=O)CNC(=O)[C@H](CCCCN)NC(=O)[C@@H](NC(=O)[C@H](CC(C)C)NC(=O)[C@H](Cc1c[nH]c2ccccc12)NC(=O)[C@H](C)NC(=O)[C@@H](NC(=O)[C@H](Cc1ccccc1)NC(=O)[C@H](CCC(=O)O)NC(=O)[C@H](CCCCN)NC(=O)[C@H](C)NC(=O)[C@H](C)NC(=O)[C@H](CCC(N)=O)NC(=O)CNC(=O)[C@H](CCC(=O)O)NC(=O)[C@H](CC(C)C)NC(=O)[C@H](Cc1ccc(O)cc1)NC(=O)[C@H](CO)NC(=O)[C@H](CO)NC(=O)[C@@H](NC(=O)[C@H](CC(=O)O)NC(=O)[C@H](CO)NC(=O)[C@@H](NC(=O)[C@H](Cc1ccccc1)NC(=O)[C@@H](NC(=O)CNC(=O)[C@H](CCC(=O)O)NC(=O)CNC(=O)[C@@H](N)Cc1c[nH]cn1)[C@@H](C)O)[C@@H](C)O)C(C)C)[C@@H](C)CC)C(C)C)C(=O)N[C@@H](CCCCN)C(=O)N[C@@H](CCCCN)C(=O)N[C@@H](CCCCN)C(=O)N[C@@H](CCCCN)C(=O)N[C@@H](CCCCN)C(=O)N[C@@H](CCCCN)C(N)=O [Compound 5]
time of BG nadir after administration (110 μg i.p.): 1 to 2 h
duration of effect (long-lasting effect) (110 μg/mouse i.p.): > 8 h
effect on blood glucose (BG) levels (110 μg/mouse i.p.): reduced BG levels; also recorded: sustained decrease in BG; also recorded: effectively lowers BG levels
time at which antidiabetic effect was observed (110 μg/mouse i.p.): 60 min
time of maximal antidiabetic effect after administration (110 μg/mouse i.p.): 2 to 4 h
effect on blood glucose (BG) levels (p.o., doses lower than 1100 μg/mouse): not at lower doses
